Experimental data from PubChem BioAssay AID1549 (Sanford-Burnham Center for Chemical Genomics, 2009).
Active and inactive are the calls of the source. No rule for the calls is given here.

target: Influenza A virus M2 proton channel (A/TW/4845/1999 H1N1); test: M2 proton channel binding, NMR based, influenza A virus H1N1 strain (AID 1549); conditions: NMR binding screen, M2 protein

SMILES	Kd
Nc1nc(SCC(=O)c2ccc([N+](=O)[O-])cc2)n[nH]1	> 4 mM (inactive)
NC(=O)CSCc1ccc(Br)cc1	> 4 mM (inactive)
Nc1ccc(NC(=O)c2ccco2)c(Cl)c1	> 4 mM (inactive)
COCc1nc(-c2cc(Br)ccc2OC)no1	> 4 mM (inactive)
Cc1ccc(N)nc1	> 4 mM (inactive)
O=c1[nH]c(=O)c2[nH]cnc2[nH]1	> 4 mM (inactive)
CC(=O)O[C@H]1C[C@@H](OC(C)=O)C(C)(C)C2CC(=O)[C@]3(C)C(CC[C@@]4(C)[C@H](C(=O)O)OC(=O)C5OC543)[C@]21C (some centres not stated)	> 4 mM (inactive)
Oc1cnc2ccccc2c1CN1CCOCC1	> 4 mM (inactive)
CN1CCCC1C(=O)O (configuration not stated)	> 4 mM (inactive)
Cn1c(=O)c2c(ncn2CCN)n(C)c1=O	> 4 mM (inactive)
CC[C@H]1CN2CCC1C[C@@H]2[C@@H](O)c1ccnc2ccc(OC)cc12 (some centres not stated)	> 4 mM (inactive)
COCCn1cnc2cc(C)c(C)cc21	> 4 mM (inactive)
Cn1c2c(c(=O)n(C)c1=O)CN(Cc1ccco1)CN2	> 4 mM (inactive)
CC(C)CCn1cnc2c1c(=O)n(C)c(=O)n2C	> 4 mM (inactive)
O=C(c1ccco1)N1CCNCC1	> 4 mM (inactive)
O=C(Nc1ccon1)c1csc2ccccc12	> 4 mM (inactive)
CC(=O)N1CC2(C)CN(C(C)=O)CC(C)(C1)C2	> 4 mM (inactive)
OCc1ccccc1O[C@@H]1O[C@H](CO)[C@@H](O)[C@H](O)[C@H]1O	> 4 mM (inactive)
Nc1ccccc1C(=O)N1CCNC(=O)C1	> 4 mM (inactive)
c1ccc2c(c1)CN1CCCC1=N2	> 4 mM (inactive)
O=C(c1ccccc1)c1ccccc1C(=O)N1CCOCC1	> 4 mM (inactive)
O=C(c1ccccc1)N1CCNCC1	> 4 mM (inactive)

SMILES	Kd
Cn1c(SCC(N)=O)nnc1-c1cccnc1	> 4 mM (inactive)
OCn1nnn(-c2ccccc2)c1=S	> 4 mM (inactive)
Nc1nc(-c2ccccc2)ns1	> 4 mM (inactive)
O=C(Nc1nnc(-c2ccco2)o1)C1=COCCO1	> 4 mM (inactive)
Cc1ccc(C(=O)N2CCC(C(N)=O)CC2)c(Cl)c1	> 4 mM (inactive)
COc1c2ccccc2nc2occc12	> 4 mM (inactive)
Nc1nc(=S)n2c(n1)oc1ccccc12	> 4 mM (inactive)
COc1ccc(C)cc1S(=O)(=O)NC1CCCC1	> 4 mM (inactive)
COc1ccc(N/C(N)=N\c2nc(C)cc(C)n2)cc1	> 4 mM (inactive)
CN1CCN(C(=O)c2ccccc2C(=O)O)CC1	> 4 mM (inactive)
CCOC(=O)Nc1ccc2c(C)cc(=O)oc2c1	> 4 mM (inactive)
Cn1c(=O)c2c([nH]c(=O)n2C)n(C)c1=O	> 4 mM (inactive)
O=c1[nH]cc(N=Cc2ccc(F)cc2)c(=O)[nH]1	> 4 mM (inactive)
C/C1=C/CC(C)(C)/C=C/C/C(C)=C/CC1	> 4 mM (inactive)
CCN1C(=O)N(CO)C2C1N(C)C(=O)N2C (configuration not stated)	> 4 mM (inactive)
CC(=O)Nc1ccc(CN2CCOCC2)cc1	> 4 mM (inactive)
Cc1nc(-c2cc(CO)no2)cs1	> 4 mM (inactive)
CN(C)c1nc(N)nc(-c2nc3ccccc3s2)n1	> 4 mM (inactive)
CC(C)NC(=O)c1cc(-n2cnnc2)ccc1Cl	> 4 mM (inactive)
COc1ccc(-c2cc(=O)c3c(O)c(OC)c(O[C@H]4O[C@H](CO[C@@H]5O[C@@H](C)[C@H](O)[C@@H](O)[C@H]5O)[C@@H](O)[C@H](O)[C@H]4O)cc3o2)cc1	> 4 mM (inactive)
CCCNC(CC(=O)Nc1cccnc1)C(=O)O (configuration not stated)	> 4 mM (inactive)
O=c1c(-c2cccs2)[n+]([O-])c2ccccc2n1O	> 4 mM (inactive)

SMILES	Kd
NS(=O)(=O)c1ccc(NC(=O)C2CC2)cc1	> 4 mM (inactive)
COc1ccc(Cl)cc1NC(=O)C(N)=O	> 4 mM (inactive)
CC(=O)N(C)Cc1nc2ccccc2n1C	> 4 mM (inactive)
O=C(O)CN1C(=O)c2ccc(C(=O)O)cc2C1=O	> 4 mM (inactive)
NC(=O)c1ccc(N2C(=O)CCC2=O)cc1Cl	> 4 mM (inactive)
NS(=O)(=O)c1ccc(N=Cc2ccc[nH]2)cc1	> 4 mM (inactive)
Cc1ccccc1-n1c(-c2cccnc2)n[nH]c1=S	> 4 mM (inactive)
NC(Cn1ccc(=O)c(O)c1)C(=O)O (configuration not stated)	> 4 mM (inactive)
CC(C)(C)c1cc(CN)c(C(=O)O)o1	> 4 mM (inactive)
COC(=O)Cn1c2ccccc2c2nc(C)sc21	> 4 mM (inactive)
NC(=O)CNC(=O)c1ccccc1	> 4 mM (inactive)
NC1=NC(=O)/C(=C\c2cccc(C(=O)O)c2)S1	> 4 mM (inactive)
O=C(O)c1cc2ccccc2o1	> 4 mM (inactive)
NC(C(=O)O)C(O)c1ccccc1 (configuration not stated)	> 4 mM (inactive)
Cc1cc(N)on1	> 4 mM (inactive)
NC(=O)C1CCN(C(=O)c2ccccc2)CC1	> 4 mM (inactive)
c1n[nH]cc1-c1cn[nH]c1	> 4 mM (inactive)
CN1CCC(NC(=O)c2cccnc2)CC1	> 4 mM (inactive)
CS(C)=C1C(=O)NC(=O)N(c2ccccc2)C1=O	> 4 mM (inactive)
Oc1cc(O)c2c(c1)O[C@H](c1ccc(O)c(O)c1)[C@@H](O)C2	> 4 mM (inactive)
CC(C)=NNC(=O)c1ccccc1	> 4 mM (inactive)
CC(=O)O[C@@H]1CC2C(C)(C)CCC(=O)[C@]2(C)C2CC[C@@]3(C)[C@H](c4ccoc4)OC(=O)C4OC43[C@@]21C (some centres not stated)	> 4 mM (inactive)

SMILES	Kd
COC(=O)C[C@H]1C(C)(C)C(=O)[C@@H]2CC3=C(CC[C@]4(C)C3=CC(=O)O[C@H]4c3ccoc3)C1(C)C2=O	> 4 mM (inactive)
O=C(O)Cn1nc(-c2ccccc2)c2ccccc2c1=O	> 4 mM (inactive)
CN1C2CC3C[C@H]1C(O3)C2O (some centres not stated)	> 4 mM (inactive)
O=c1[nH]c(O)c(C=NCc2cccs2)c(=O)[nH]1	> 4 mM (inactive)
O=c1cc(-c2ccccc2)oc2cc(O)c(O)c(O)c12	> 4 mM (inactive)
COc1ccc2[nH]cc(CCNC(C)=O)c2c1	> 4 mM (inactive)
COC(=O)c1ccccc1N(C)S(C)(=O)=O	> 4 mM (inactive)
CN(c1ccccc1C(=O)N1CCOCC1)S(C)(=O)=O	> 4 mM (inactive)
Cc1c(N=Cc2ccco2)c(=O)n(-c2ccccc2)n1C	> 4 mM (inactive)
O=C(O)Cc1c[nH]c2ccccc12	> 4 mM (inactive)
N#CCc1nc2ccccc2s1	> 4 mM (inactive)
NC(=O)C1(S(=O)(=O)c2ccccc2)CC1	> 4 mM (inactive)
C[C@@H]1CC[C@@]23CCC4(C)[C@@](C=CC5[C@@]6(C)CCC(=O)C(C)(C)C6CC[C@]54C)(OC2=O)C3[C@H]1C (some centres not stated)	> 4 mM (inactive)
O=C(NCO)c1ccccc1Cl	> 4 mM (inactive)
COC(=O)c1cccs1	> 4 mM (inactive)
Cc1ccc(=O)[nH]c1	> 4 mM (inactive)
OCc1ccc(-c2ccccn2)s1	> 4 mM (inactive)
CNCc1ccco1	> 4 mM (inactive)
O=C1CCCCCN1CO	> 4 mM (inactive)
COc1ccc(C2(C)CC(=O)NC2=O)cc1 (configuration not stated)	> 4 mM (inactive)
Cc1cc(C)nc(/N=C(/N)N2CCOCC2)n1	> 4 mM (inactive)
